This note sets out measurements from publication PMC11123841, “Discovery and Synthesis of Hydroxy-L-Proline Blockers of the Neutral Amino Acid Transporters SLC1A4 (ASCT1) and SLC1A5 (ASCT2)” (Molecules, 2024).

One may read the pIC50 as the negative decadic logarithm of the IC50, by convention in mol/L. A high value points to a small IC50.

Format in all cases: cell-based
One assay has as its target T1, SLC1A4 (Homo sapiens, UniProt P43007).
T1 construct: expressed in transfected cells; host or cells: Xenopus laevis oocytes (cRNA injection)
T1 sequence (P43007 1-532): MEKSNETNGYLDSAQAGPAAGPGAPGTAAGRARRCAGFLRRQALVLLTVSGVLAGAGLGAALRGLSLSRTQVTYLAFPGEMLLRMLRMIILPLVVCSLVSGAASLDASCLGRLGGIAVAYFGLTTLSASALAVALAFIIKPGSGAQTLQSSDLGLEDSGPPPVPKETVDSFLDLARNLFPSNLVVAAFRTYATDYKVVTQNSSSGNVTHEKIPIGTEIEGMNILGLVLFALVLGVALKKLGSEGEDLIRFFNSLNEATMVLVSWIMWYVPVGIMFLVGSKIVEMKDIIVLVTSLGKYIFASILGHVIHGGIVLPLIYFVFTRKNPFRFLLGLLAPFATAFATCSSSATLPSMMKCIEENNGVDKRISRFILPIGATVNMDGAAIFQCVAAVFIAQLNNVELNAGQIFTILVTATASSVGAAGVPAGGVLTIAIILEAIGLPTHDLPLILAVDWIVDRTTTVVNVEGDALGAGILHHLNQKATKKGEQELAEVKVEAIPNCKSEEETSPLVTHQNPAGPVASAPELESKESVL
The assay can be described thus: [3H]L-alanine uptake block in oocytes. As for the experimental part:
(§1) Uptake was halted by washing 3 times with 4 °C ND96 buffer. Oocytes were then lysed in 0.1% Triton X-100, and radioactivity was counted via liquid scintillation. Dose response curves were generated by fitting fractional inhibition (I) to the expression I = Imax × [inhibitor]/([inhibitor] + IC50).

The target in the next assay is T2, SLC38A1 (ATA1) (Homo sapiens, UniProt Q9H2H9).
T2 construct: expressed in transfected cells; host or cells: Xenopus laevis oocytes (cRNA injection)
T2 sequence (Q9H2H9 1-487): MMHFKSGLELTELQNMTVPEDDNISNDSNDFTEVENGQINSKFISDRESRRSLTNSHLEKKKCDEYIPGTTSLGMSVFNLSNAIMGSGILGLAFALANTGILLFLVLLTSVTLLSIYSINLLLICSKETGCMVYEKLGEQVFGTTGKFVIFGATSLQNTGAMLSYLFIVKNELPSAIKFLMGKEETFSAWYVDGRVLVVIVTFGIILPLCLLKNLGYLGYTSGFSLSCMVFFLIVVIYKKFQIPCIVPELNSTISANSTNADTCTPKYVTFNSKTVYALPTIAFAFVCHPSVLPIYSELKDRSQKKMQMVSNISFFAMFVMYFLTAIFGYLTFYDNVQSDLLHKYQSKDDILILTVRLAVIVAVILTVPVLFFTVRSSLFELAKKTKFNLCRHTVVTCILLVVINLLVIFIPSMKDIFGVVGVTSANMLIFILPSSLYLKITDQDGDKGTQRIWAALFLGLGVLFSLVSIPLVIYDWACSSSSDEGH
The assay can be described thus: TEVC electrogenic coupled currents in oocytes. As to conditions: 100 µM L-alanine, 3 µM BPOHP. On the procedure:
(§2) BPOHP activity was evaluated against the glutamate transporters paralogs within the SLC1A gene family (SLC1A 1–3) as well as at neutral amino acid transporters that share common ligand substrates with the SLC1 family including SLC38A1,2, and 4 (ATA1, ATA2, ATA3) and heteromeric transporters SLC7A10+SLC3A2 (asc-1/4f2). […] Finally, radiolabeled [^3H]D-serine uptake was used to assess the electroneutral SLC7A10+SLC3A2 transporter, in which 10 µM BPOHP had no effect (Figure S3).
as §1
(§3) Two-electrode voltage clamp (TEVC) transporter currents were recorded with a GeneClamp 500 amplifier and Digidata 1320A analog–digital interface (Molecular Devices, San Jose, CA, USA). […] Data were acquired with Axograph (v1.7.6) and LabChart (v7) and analyzed with Kaleidagraph software (v4.1) (Synergy, Reading, PA, USA). Uncoupled anion currents associated with the transport of substrate and block of SLC1A4 or SLC1A5 mediated leak conductance were recorded in the presence of Ringer with 50% substitution of NaCl by NaSCN to amplify the non-transported anion conductance. […]

The target in the next assay is T3, SLC38A4 (ATA3) (Homo sapiens, UniProt Q969I6).
T3 construct: expressed in transfected cells; host or cells: Xenopus laevis oocytes (cRNA injection)
T3 sequence (Q969I6 1-547): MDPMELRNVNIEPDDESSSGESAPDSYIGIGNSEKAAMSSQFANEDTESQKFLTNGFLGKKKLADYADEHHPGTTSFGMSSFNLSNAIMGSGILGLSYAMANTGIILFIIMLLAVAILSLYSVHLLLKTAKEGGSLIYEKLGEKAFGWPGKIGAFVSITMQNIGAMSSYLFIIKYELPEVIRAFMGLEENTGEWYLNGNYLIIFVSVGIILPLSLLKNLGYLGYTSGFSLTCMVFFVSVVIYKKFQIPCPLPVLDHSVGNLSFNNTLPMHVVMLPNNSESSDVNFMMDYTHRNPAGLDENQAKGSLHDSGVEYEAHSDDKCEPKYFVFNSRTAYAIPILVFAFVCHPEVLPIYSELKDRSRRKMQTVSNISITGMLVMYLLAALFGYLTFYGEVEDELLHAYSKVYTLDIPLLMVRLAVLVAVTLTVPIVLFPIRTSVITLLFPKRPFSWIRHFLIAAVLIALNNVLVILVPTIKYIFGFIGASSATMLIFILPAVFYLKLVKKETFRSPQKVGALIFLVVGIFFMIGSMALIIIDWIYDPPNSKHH
The assay can be described thus: TEVC electrogenic coupled currents in oocytes. As to conditions: 100 µM L-alanine, 3 µM BPOHP. As for the experimental part:
as §2, §1, §3

pIC50: −log10 of the molar value. Entries after “also recorded” stand apart in the source; their conditions may differ.

Consider `O=C(O)[C@H]1NC[C@@H](OCc2ccc(-c3ccccc3)cc2)[C@@H]1O` [14e], for which, at SLC1A4, the pIC50 is 6.89. For the same compound, the “block of L-alanine current” value on SLC38A1 (ATA1) and at SLC38A4 (ATA3) was “no effect; also recorded: no discernible block; also recorded: no inhibition was detected” throughout.
